{"source": "patent US10793525B2", "about": "“13-cis-RAMBA retinamides that degrade MNKs for treating cancer” (UNIVERSITY OF MARYLAND, BALTIMORE, priority 2014, dated 2020)", "key": {"[1]": {"system": "MDA-MB-468 human breast cancer cells", "test": "MTT cell proliferation assay, MDA-MB-468", "format": "cell-based", "conditions": "MDA-MB-468 cells, SEM < 10%, read-out: GI50s MDA-MB-468", "from_the_text": "(§1) MCF-7, MDA-MB-231, MDA-MB-468 and SKBR-3 human breast cancer cells and LNCaP, PC-3, and CWR22Rv1 human prostate carcinoma cells (American Type Culture Collection, Manassas, Va., USA) were maintained in RPMI 1640 media (Gibco-Life Technologies, Grand Island, N.Y., USA) supplemented with 10% fetal bovine serum and 1% penicillin/streptomycin. Western blotting was done as mentioned previously,^8, 13b using the following antibodies: AR, Bad, Bax, Bcl-2, eIF4E, Mnk1, Mnk-2, N-cadherin, PARP, peIF4E^ser209 purchased from Cell Signaling Technology, Danvers, Mass., USA. Anti-Mnk2 was purchased from Sigma-Aldrich and normal rabbit IgG, cyclin D1 was from Santa Cruz Biotechnology, CA, USA.\n(§2) Cells were plated (2500 cells/well) in 96 well plates and treated with or without specified compounds as described previously.^8a, 12b\n(§3) The clinically relevant retinoids, ATRA and 4-HPR and the Mnk inhibitor, cercosporamide were used as comparators in the assays."}, "[2]": {"system": "CWR22Rv1 human prostate carcinoma cells", "test": "MTT cell proliferation assay, CWR22Rv1", "format": "cell-based", "conditions": "SEM < 10%, read-out: GI50s CWR22Rv1", "from_the_text": "as §1, §2, §3\n(§4) The PC-3 cell line was the least sensitive to all the compounds tested."}, "[3]": {"system": "CWR22Rv1 xenograft tumors", "test": "CWR22Rv1 anti-tumor efficacy study (xenograft)", "format": "in vivo, mice", "method": "All animal studies were performed according to the guidelines and approval of the Animal Care Committee of the University of Maryland School of Medicine, Baltimore (UMB). Female Athymic Nude mice or male SCID (Charles Rivers Laboratories or UMB facilities) at 4-6 weeks of age were maintained in a pathogen-free environment. MDA-MB-231 (10×10^6) cells were subcutaneously implanted into Athymic Nude mice and CWR22Rv1 (1×10^6) cells into male SCID mice. Mice bearing established tumors (˜100 mm^3) were randomized into treatment groups of 6 and dosed with vehicle (40% β-cyclodexdrin in ddH2O), or compounds 20 and 22 (i.p., formulated in 40% β-cyclodexdrin in ddH2O, once daily, 5 days a week for 28 days).\nThe National Cancer Institute (NCI) criteria^23 were used to determine tumor growth efficacy of our compounds. Thus, percent test or treatment/control (% T/C), defined as the ratio of the median tumor volume for the treated group versus control group, was calculated as % T/C=[(median tumor volume of treated group at day 28)/(median tumor volume of control group at day 28)]×100."}, "[4]": {"system": "PC-3 human prostate carcinoma cells", "test": "MTT cell proliferation assay, PC-3", "format": "cell-based", "conditions": "PC-3 cells, SEM < 10%, read-out: GI50s PC-3", "from_the_text": "as §1, §2, §3, §4"}, "[5]": {"system": "PC-3 cells", "test": "Wound-healing assay, PC-3 cell migration", "format": "cell-based, human", "conditions": "5 μM, 24 hours", "method": "Wound healing assay and matrigel invasion assay were also conducted as described previously using highly metastatic PC-3 cells following treatment with 5 μM of RRs for 24 h.^8a,26\nBased on previous studies with closely related compound,^8 the inhibitory effects of Compounds 16, 20 and 22 on cell migration were evaluated, using the human metastatic PC cell line, PC-3 by wound-healing assay. PC-3 cells (5×10^5 cells/well) were seeded on Boyden chamber, grown to confluence and scratches made at experimental tome zero. The cells were treated with indicated compounds (5 μM each) for 24 hours. Representative photomicrographs of initial and final wounds are shown at 100× magnification. […] At 24 hours after cell monolayers were wounded, control cells had completely filled in the scratched area."}, "[6]": {"system": "Mnk1 and 2, peIF4E, eIF4E and cPARP", "test": "Western blot of lysates from MCF-7, MDA-MB-231 and MDA-MB-468 cells", "format": "cell-based, human", "conditions": "MCF-7, MDA-MB-231, MDA-MB-468 cells, 24 hours", "from_the_text": "as §1\nAs we previously reported, the anti-proliferative effects of the 1st generation MNKDAs in BC cells was due to degradation of Mnk1/2 with subsequent depletion of peIF4E and induction of apoptosis.^8a To determine if these compounds modulate Mnk1/2 and related oncogenic proteins, the inventors performed western blot of lysates from MCF-7, MDA-MB-231 and MDA-MB-468 human breast cancer cells treated with Compounds 16, 20, and 22, or with vehicle (DMSO, negative control), or Compound 6 (positive control). Equal protein concentrations from MCF-7 (FIG. 3A), MDA-MB-231 (FIG. 3B) and MDA-MB-468 (FIG. 3C) cells treated for 24 hours with Compounds 16, 20 and 22 at the various concentrations as indicated and Compound 6 (20 μmol/L) were separated by SDS-PAGE and western blots probed with antibodies to Mnk1 and 2, peIF4E, eIF4E and cPARP. Vehicle treated cells were included as control and all blots were reprobed for GAPDH for loading control."}, "[7]": {"system": "SKBR-3 human breast cancer cells", "test": "MTT cell proliferation assay, SKBR-3", "format": "cell-based", "conditions": "SK-BR-3, SKBR-3 cells, SEM < 10%, read-out: GI50s SKBR-3", "from_the_text": "as §1, §2, §3"}, "[8]": {"system": "fAR, Mnk1/2, peIF4E, cyclin D1 and cleaved PARP", "test": "Western blot of lysates from LNCaP cells", "format": "cell-based, human", "conditions": "0.6-20 μM, 24 hours", "from_the_text": "as §1\nEqual protein concentrations from LNCaP cells treated with Compounds 16, 20 and 22 at different concentrations (0.6-20 μM) for 24 hours were separated by SDS-PAGE and western blots probed with antibodies to fAR, Mnk1/2, peIF4E, cyclin D1 and cleaved PARP. Vehicle treated cells were included as a control and all blots were reprobed for β-actin for loading control."}, "[9]": {"system": "MDA-MB-231 human breast cancer cells", "test": "MTT cell proliferation assay, MDA-MB-231", "format": "cell-based", "conditions": "MDA-MB-231 cells, SEM < 10%, read-out: GI50s MDA-MB-231", "from_the_text": "as §1, §2, §3"}, "[10]": {"conditions": "CWR22Rv1 xenografts, castrated SCID mice, i.p. 20 mg/kg/day, 5 days per week for 28 days"}}, "note": "pIC50: −log10 of the molar value.", "data": [{"compound": "CC1=C(/C=C/C(C)=C/C=C/C(C)=C\\C(=O)Nc2cccc(F)c2)C(C)(C)CCC1n1ccnc1", "note": "(centres unmarked) [Compound 20, (2Z,4E,6E,8E)-9-(3-(1H-imidazol-1-yl)-2,6,6-trimethylcyclohex-1-en-1-yl)-N-(3-fluorophenyl)-3,7-dimethylnona-2,4,6,8-tetraenamide]", "values": [{"measurement": "pIC50", "setting": "[1]", "result": 5.17}, {"measurement": "pIC50", "setting": "[2]", "result": 5.69}, {"measurement": "adverse effects", "setting": "[3]; CWR22Rv1 xenograft mice", "result": "no apparent adverse effects"}, {"measurement": "body weights", "setting": "[3]; CWR22Rv1 xenograft mice, vehicle control versus treatment", "result": "comparable"}, {"measurement": "% T/C value", "setting": "[3]; [10]", "result": 38.8, "unit": "%"}, {"measurement": "suppression of tumor growth", "setting": "[3]; [10]", "result": 61.2, "unit": "%"}, {"measurement": "pIC50", "setting": "[4]", "result": 5.25}, {"measurement": "migration of PC-3 cells", "setting": "[5]", "result": "significantly inhibited migration"}, {"measurement": "expression of total eIF4E", "setting": "[6]", "result": "no noticeable effects"}, {"measurement": "expressions of Mnk1, Mnk2 and peIF4E", "setting": "[6]", "result": "significantly and dose-dependently, reduced"}, {"measurement": "formation of c-PARP (apoptosis)", "setting": "[6]", "result": "dose-dependent formation of c-PARP"}, {"measurement": "pIC50", "setting": "[7]", "result": 4.77}, {"measurement": "cleaved PARP (c-PARP)", "setting": "[8]", "result": "induced cleaved PARP"}, {"measurement": "cyclin D1", "setting": "[8]", "result": "significant depletion"}, {"measurement": "expression of total eIF4E", "setting": "[8]", "result": "no noticeable effects"}, {"measurement": "expressions of fAR, Mnk1 and Mnk2", "setting": "[8]", "result": "significantly and in a dose-dependent fashion, reduced"}, {"measurement": "pIC50", "setting": "[9]", "result": 5.07}]}]}
